In ChEMBL document CHEMBL2057068, “Quinolylhydrazones as novel inhibitors of Plasmodium falciparum serine protease PfSUB1” (Bioorg Med Chem Lett, 2012):

Biological target: T1, Subtilisin-like protease 1 (Plasmodium falciparum, UniProt O61142)
T1 sequence (O61142 whole entry): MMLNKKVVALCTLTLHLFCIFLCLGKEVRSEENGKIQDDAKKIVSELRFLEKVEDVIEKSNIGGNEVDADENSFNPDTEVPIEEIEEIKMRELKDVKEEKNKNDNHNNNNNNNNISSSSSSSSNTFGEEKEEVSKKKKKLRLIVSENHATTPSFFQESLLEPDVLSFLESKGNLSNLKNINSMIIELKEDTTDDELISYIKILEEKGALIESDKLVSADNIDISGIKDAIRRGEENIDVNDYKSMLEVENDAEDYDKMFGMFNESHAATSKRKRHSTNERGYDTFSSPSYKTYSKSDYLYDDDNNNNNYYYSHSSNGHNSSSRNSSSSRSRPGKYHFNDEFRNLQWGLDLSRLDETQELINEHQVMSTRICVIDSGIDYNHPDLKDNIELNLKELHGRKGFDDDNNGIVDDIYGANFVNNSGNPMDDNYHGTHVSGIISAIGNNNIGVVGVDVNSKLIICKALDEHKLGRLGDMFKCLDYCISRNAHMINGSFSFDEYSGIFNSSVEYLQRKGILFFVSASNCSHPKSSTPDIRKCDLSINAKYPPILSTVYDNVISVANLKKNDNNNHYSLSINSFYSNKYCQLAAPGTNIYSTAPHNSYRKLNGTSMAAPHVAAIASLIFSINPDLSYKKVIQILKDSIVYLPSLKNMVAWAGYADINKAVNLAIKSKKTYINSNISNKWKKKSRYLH
Assay: Inhibition of Plasmodium falciparum SUB1 by fluorimetric assay

Row | Structure (SMILES) | IC50 [µM]
1 | O=[N+]([O-])c1ccc(/C=N/Nc2c3c(nc4ccccc24)CCCC3)cc1 | > 50
2 | COc1ccc2nc(C)cc(N/N=C/c3ccc([N+](=O)[O-])cc3)c2c1 | 20
3 | COc1ccc2nccc(N/N=C/c3ccc([N+](=O)[O-])cc3)c2c1 | 50
4 | Cc1cc(N/N=C/c2ccc(C#N)cc2)c2cc3c(cc2n1)OCO3 | 40
5 | O=[N+]([O-])c1ccc(C=NNc2nc3ccccc3[nH]2)cc1 | > 50

Further lines, results first:

Row | IC50 [µM] | Structure (SMILES)
6 | 20 | Cc1cc(N/N=C/c2ccc([N+](=O)[O-])cc2)c2cc3c(cc2n1)OCO3
7 | 40 | Cc1cc(N/N=C/c2ccccc2[N+](=O)[O-])c2cc3c(cc2n1)OCO3

Biological target: T2, Subtilisin-like protease 1 (Plasmodium falciparum) (UniProt O61142)
T2 sequence (whole entry): T1 sequence (O61142 whole entry)
Assay: Inhibition of Plasmodium falciparum SUB1 assessed as residual hydrolytic activity at 50 uM by fluorimetric assay

Row | Structure (SMILES) | Activity [%]
8 | Cc1cc(N/N=C/c2ccc(F)cc2)c2cc3c(cc2n1)OCO3 | 97
9 | O=[N+]([O-])c1ccc(/C=N/Nc2c3c(nc4ccccc24)CCCC3)cc1 | 55.8
10 | Cc1cc(N/N=C/c2ccc(Cl)cc2)c2cc3c(cc2n1)OCO3 | 77.9
11 | COc1ccc2nc(C)cc(N/N=C/c3ccc([N+](=O)[O-])cc3)c2c1 | 12.3
12 | Cc1cc(N/N=C/c2ccc(C#N)cc2)c2ccccc2n1 | 85
13 | Cc1cc(N/N=C/c2ccc(NS(C)(=O)=O)cc2)c2cc3c(cc2n1)OCO3 | 72.2
14 | O=[N+]([O-])c1ccc(/C=N/Nc2ccnc3ccccc23)cc1 | 80.6
15 | CCOC(OCC)c1ccc(/C=N/Nc2cc(C)nc3cc4c(cc23)OCO4)cc1 | 75.6
16 | COc1ccc2nccc(N/N=C/c3ccc([N+](=O)[O-])cc3)c2c1 | 32.4
17 | O=C(NNc1nc2ccccc2[nH]1)c1ccc([N+](=O)[O-])cc1 | 46.7
18 | Cc1cc(N/N=C/c2ccc(C=O)cc2)c2cc3c(cc2n1)OCO3 | 86.5
19 | Cc1cc(N/N=C/c2ccccc2C(F)(F)F)c2cc3c(cc2n1)OCO3 | 100
20 | CSc1ccc(/C=N/Nc2cc(C)nc3cc4c(cc23)OCO4)cc1 | 77.5
21 | Cc1cc(N/N=C/c2ccc([S+](C)[O-])cc2)c2cc3c(cc2n1)OCO3 (configuration not stated) | 92.4
22 | Cc1cc(N/N=C/c2ccc(C(F)(F)F)cc2C(F)(F)F)c2cc3c(cc2n1)OCO3 | 62.1
23 | N#Cc1ccc(/C=N/Nc2c3c(nc4ccccc24)CCCC3)cc1 | 81.5
24 | Cc1cc(N/N=C/c2ccc(C#N)cc2)c2cc3c(cc2n1)OCO3 | 29.2
25 | O=[N+]([O-])c1ccc(C=NNc2nc3ccccc3[nH]2)cc1 | 43.1
26 | O=[N+]([O-])c1ccc(/C=N/Nc2ccncc2)cc1 | 84.6
27 | N#Cc1ccc(/C=N/Nc2ccnc3ccccc23)cc1 | 74.3
28 | Cc1cc(N/N=C/c2ccc(C(F)(F)F)cc2)c2cc3c(cc2n1)OCO3 | 86.1

Results, then the compound that gave them:

Row | Activity [%] | Structure (SMILES)
29 | 68.7 | Cc1cc(NNC(=O)c2ccc(S(C)(=O)=O)cc2)c2cc3c(cc2n1)OCO3
30 | 76.4 | Cc1cc(N/N=C/c2ccc(S(C)(=O)=O)cc2)c2cc3c(cc2n1)OCO3
31 | 75.5 | Cc1cc(N/N=C/c2ccc(C(=O)O)cc2)c2cc3c(cc2n1)OCO3
32 | 27.2 | Cc1cc(N/N=C/c2ccc([N+](=O)[O-])cc2)c2cc3c(cc2n1)OCO3
33 | 78.2 | Cc1cc(N/N=C/c2ccc(Br)cc2)c2cc3c(cc2n1)OCO3
34 | 70.9 | CC(=O)Nc1ccc(/C=N/Nc2cc(C)nc3cc4c(cc23)OCO4)cc1
35 | 60.3 | C/C(=N\Nc1cc(C)nc2cc3c(cc12)OCO3)c1ccc([N+](=O)[O-])cc1
36 | 64.4 | Cc1cc(NNC(=O)c2ccc([N+](=O)[O-])cc2)c2cc3c(cc2n1)OCO3
37 | 85 | COC(=O)c1ccc(/C=N/Nc2cc(C)nc3cc4c(cc23)OCO4)cc1
38 | 72.2 | Cc1cc(/N=C/c2ccc([N+](=O)[O-])cc2)c2cc3c(cc2n1)OCO3
39 | 85.5 | Cc1cc(NNC(=O)c2ccc(C#N)cc2)c2cc3c(cc2n1)OCO3
40 | 38.6 | Cc1cc(N/N=C/c2ccccc2[N+](=O)[O-])c2cc3c(cc2n1)OCO3
41 | 73.9 | Cc1cc(N/N=C/c2ccc(/C(N)=N/O)cc2)c2cc3c(cc2n1)OCO3
42 | 97.2 | Cc1cc(N/N=C/c2cccc([N+](=O)[O-])c2)c2cc3c(cc2n1)OCO3
